Data reported in ChEMBL document CHEMBL3091421, “Discovery of benzo[d]imidazo[5,1-b]thiazole as a new class of phosphodiesterase 10A inhibitors” (Bioorg Med Chem Lett, 2013).

Assays:
[1] = target: cAMP and cAMP-inhibited cGMP 3',5'-cyclic phosphodiesterase 10A (Homo sapiens, UniProt Q9Y233); assay: Inhibition of human recombinant PDE10A using [3H]-cAMP/[3H]-cGMP as substrate after 30 mins by radiometric assay
[2] = Metabolic stability in human liver microsomes assessed as compound remaining after 60 mins; format: ADME; conditions: read-out: Stability
[3] = Drug uptake in Sprague-Dawley rat brain at 10 mg/kg, po after 30 mins; format: ADME, organism-based; set-up: dose 10 mg/kg, route oral; conditions: read-out: Drug uptake
[4] = Ratio of drug level in brain to plasma in Sprague-Dawley rat at 10 mg/kg, po after 30 mins; format: ADME, organism-based; set-up: dose 10 mg/kg, route oral; conditions: brain and plasma, read-out: BPR
[5] = Plasma concentration in Sprague-Dawley rat at 10 mg/kg, po after 30 mins; format: ADME, organism-based; set-up: dose 10 mg/kg, route oral
[6] = Metabolic stability in rat liver microsomes assessed as compound remaining after 60 mins; format: ADME; conditions: read-out: Stability
Rattus norvegicus = assay: Antipsychotic activity in Sprague-Dawley rat psychosis model assessed as inhibition of MK-801-induced hyperlocomotion at 1 mg/kg, ip administered 5 mins prior to MK-801-challenge measured after 15 mins up to 1 hr; format: functional; conditions: route intraperitoneal
Homo sapiens [7] = species: Homo sapiens; assay: Selectivity ratio of IC50 for PDE8A (unknown origin) to IC50 for human recombinant PDE10A
Homo sapiens [8] = species: Homo sapiens; assay: Selectivity ratio of IC50 for PDE11A (unknown origin) to IC50 for human recombinant PDE10A
Homo sapiens [9] = species: Homo sapiens; assay: Selectivity ratio of IC50 for PDE2A (unknown origin) to IC50 for human recombinant PDE10A
[10] = target: cGMP-specific 3',5'-cyclic phosphodiesterase (Homo sapiens) (UniProt O76074); assay: Inhibition of PDE5A (unknown origin) using [3H]-cGMP as substrate at 10 uM after 30 mins by radiometric assay
[11] = target: cGMP-inhibited 3',5'-cyclic phosphodiesterase 3A (Homo sapiens) (UniProt Q14432); assay: Inhibition of PDE3A (unknown origin) using cAMP as substrate at 10 uM after 30 mins by HTRF method
Homo sapiens [12] = species: Homo sapiens; assay: Selectivity ratio of IC50 for PDE4D (unknown origin) to IC50 for human recombinant PDE10A
[13] = target: cGMP-dependent 3',5'-cyclic phosphodiesterase (Homo sapiens) (UniProt O00408); assay: Inhibition of PDE2A (unknown origin) using cAMP as substrate at 10 uM after 30 mins by HTRF method
Homo sapiens [14] = species: Homo sapiens; assay: Selectivity ratio of IC50 for PDE3A (unknown origin) to IC50 for human recombinant PDE10A
[15] = target: Dual 3',5'-cyclic-AMP and -GMP phosphodiesterase 11A (Homo sapiens) (UniProt Q9HCR9); assay: Inhibition of PDE11A (unknown origin) using [3H]-cAMP as substrate at 10 uM after 30 mins by radiometric assay
[16] = target: High affinity cGMP-specific 3',5'-cyclic phosphodiesterase 9A (Homo sapiens) (UniProt O76083); assay: Inhibition of PDE9A2 (unknown origin) using [3H]-cGMP as substrate at 10 uM after 30 mins by radiometric assay
Homo sapiens [17] = species: Homo sapiens; assay: Selectivity ratio of IC50 for PDE5A (unknown origin) to IC50 for human recombinant PDE10A
Homo sapiens [18] = species: Homo sapiens; assay: Selectivity ratio of IC50 for PDE7A1 (unknown origin) to IC50 for human recombinant PDE10A
[19] = target: 3',5'-cyclic-AMP phosphodiesterase 4D (Homo sapiens) (UniProt Q08499); assay: Inhibition of PDE4D (unknown origin) using cAMP as substrate at 10 uM after 30 mins
Homo sapiens [20] = species: Homo sapiens; assay: Selectivity ratio of IC50 for PDE1A (unknown origin) to IC50 for human recombinant PDE10A
[21] = target: High affinity cAMP-specific and IBMX-insensitive 3',5'-cyclic phosphodiesterase 8A (Homo sapiens) (UniProt O60658); assay: Inhibition of PDE8A (unknown origin) using [3H]-cAMP as substrate at 10 uM after 30 mins by radiometric assay
[22] = target: High affinity 3',5'-cyclic-AMP phosphodiesterase 7A (Homo sapiens) (UniProt Q13946); assay: Inhibition of PDE7A1 (unknown origin) using [3H]-cAMP as substrate at 10 uM after 30 mins by radiometric assay
Homo sapiens [23] = species: Homo sapiens; assay: Selectivity ratio of IC50 for PDE9A2 (unknown origin) to IC50 for human recombinant PDE10A

Sequence of cAMP and cAMP-inhibited cGMP 3',5'-cyclic phosphodiesterase 10A (Q9Y233 whole entry): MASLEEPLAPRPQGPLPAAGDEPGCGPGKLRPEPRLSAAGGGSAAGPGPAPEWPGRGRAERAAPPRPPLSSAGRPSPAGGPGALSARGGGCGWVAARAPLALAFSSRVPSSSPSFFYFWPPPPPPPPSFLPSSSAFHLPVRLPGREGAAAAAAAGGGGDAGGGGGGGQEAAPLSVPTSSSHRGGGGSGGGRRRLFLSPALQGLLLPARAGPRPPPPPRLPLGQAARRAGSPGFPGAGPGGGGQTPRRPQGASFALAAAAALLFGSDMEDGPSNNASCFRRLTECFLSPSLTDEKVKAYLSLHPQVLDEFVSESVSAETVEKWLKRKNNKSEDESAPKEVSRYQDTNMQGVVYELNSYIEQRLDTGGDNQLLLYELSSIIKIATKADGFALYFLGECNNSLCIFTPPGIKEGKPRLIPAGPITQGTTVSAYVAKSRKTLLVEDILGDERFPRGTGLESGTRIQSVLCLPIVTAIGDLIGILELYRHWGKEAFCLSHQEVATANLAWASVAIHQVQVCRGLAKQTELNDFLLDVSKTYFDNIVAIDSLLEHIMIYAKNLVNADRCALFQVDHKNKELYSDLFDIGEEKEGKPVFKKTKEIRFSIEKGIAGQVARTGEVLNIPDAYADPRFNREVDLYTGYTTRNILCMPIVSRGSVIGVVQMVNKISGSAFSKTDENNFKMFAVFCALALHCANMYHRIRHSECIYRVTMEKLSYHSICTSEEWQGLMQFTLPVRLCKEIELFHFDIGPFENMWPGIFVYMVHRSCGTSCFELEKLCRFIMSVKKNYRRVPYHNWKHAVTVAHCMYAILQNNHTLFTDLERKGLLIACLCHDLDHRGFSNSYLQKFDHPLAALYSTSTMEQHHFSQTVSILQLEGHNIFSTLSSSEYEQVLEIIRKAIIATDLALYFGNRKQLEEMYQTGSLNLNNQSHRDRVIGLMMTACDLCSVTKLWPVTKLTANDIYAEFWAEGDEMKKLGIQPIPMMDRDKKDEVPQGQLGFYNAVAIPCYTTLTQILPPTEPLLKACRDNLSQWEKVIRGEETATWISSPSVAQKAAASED
Sequence of Dual 3',5'-cyclic-AMP and -GMP phosphodiesterase 11A (Homo sapiens) (Q9HCR9 whole entry, looked up): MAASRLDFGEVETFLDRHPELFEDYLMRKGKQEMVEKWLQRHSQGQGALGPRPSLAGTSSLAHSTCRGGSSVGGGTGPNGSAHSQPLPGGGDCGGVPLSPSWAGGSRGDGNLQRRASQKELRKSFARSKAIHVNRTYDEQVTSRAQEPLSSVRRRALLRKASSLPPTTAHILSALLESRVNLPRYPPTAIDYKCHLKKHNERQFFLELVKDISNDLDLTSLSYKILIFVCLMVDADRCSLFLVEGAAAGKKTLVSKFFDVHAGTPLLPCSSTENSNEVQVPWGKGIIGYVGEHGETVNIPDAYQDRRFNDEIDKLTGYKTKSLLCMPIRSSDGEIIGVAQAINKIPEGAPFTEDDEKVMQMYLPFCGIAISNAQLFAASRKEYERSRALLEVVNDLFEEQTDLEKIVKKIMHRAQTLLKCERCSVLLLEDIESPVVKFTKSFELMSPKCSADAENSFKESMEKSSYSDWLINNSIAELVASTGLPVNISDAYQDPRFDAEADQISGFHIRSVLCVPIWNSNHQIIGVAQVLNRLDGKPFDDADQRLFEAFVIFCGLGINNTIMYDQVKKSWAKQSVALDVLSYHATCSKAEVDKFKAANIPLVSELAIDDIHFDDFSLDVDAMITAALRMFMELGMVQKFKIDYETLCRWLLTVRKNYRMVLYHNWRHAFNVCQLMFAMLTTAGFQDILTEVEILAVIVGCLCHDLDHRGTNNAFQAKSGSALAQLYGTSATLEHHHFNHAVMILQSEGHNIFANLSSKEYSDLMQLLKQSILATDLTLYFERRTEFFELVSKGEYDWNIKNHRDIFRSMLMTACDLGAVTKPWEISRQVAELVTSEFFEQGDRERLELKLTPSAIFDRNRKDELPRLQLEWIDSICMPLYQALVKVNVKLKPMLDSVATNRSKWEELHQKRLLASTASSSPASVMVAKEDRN
Sequence of 3',5'-cyclic-AMP phosphodiesterase 4D (Homo sapiens) (Q08499 whole entry): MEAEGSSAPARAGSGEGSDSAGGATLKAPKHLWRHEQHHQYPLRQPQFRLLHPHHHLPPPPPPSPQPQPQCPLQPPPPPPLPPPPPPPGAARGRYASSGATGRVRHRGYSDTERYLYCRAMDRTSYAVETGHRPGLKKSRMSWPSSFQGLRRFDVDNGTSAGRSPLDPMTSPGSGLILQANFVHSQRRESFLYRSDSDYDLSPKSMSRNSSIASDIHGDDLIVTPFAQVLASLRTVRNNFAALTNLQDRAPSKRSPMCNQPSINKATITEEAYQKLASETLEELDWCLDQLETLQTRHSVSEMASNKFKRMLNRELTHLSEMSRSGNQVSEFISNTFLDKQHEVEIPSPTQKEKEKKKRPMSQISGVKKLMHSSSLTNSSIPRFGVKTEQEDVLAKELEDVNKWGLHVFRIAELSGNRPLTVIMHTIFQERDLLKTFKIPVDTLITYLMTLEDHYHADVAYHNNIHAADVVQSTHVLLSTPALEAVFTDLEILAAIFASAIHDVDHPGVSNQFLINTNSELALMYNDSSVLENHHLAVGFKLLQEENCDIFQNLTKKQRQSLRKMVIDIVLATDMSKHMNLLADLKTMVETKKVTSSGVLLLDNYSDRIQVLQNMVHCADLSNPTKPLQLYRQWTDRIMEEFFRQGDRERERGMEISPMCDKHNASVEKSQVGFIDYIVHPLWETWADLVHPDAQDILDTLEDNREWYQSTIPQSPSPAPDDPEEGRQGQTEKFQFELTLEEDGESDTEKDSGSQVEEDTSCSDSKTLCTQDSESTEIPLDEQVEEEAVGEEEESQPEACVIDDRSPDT
Sequence of High affinity cGMP-specific 3',5'-cyclic phosphodiesterase 9A (Homo sapiens) (O76083 whole entry): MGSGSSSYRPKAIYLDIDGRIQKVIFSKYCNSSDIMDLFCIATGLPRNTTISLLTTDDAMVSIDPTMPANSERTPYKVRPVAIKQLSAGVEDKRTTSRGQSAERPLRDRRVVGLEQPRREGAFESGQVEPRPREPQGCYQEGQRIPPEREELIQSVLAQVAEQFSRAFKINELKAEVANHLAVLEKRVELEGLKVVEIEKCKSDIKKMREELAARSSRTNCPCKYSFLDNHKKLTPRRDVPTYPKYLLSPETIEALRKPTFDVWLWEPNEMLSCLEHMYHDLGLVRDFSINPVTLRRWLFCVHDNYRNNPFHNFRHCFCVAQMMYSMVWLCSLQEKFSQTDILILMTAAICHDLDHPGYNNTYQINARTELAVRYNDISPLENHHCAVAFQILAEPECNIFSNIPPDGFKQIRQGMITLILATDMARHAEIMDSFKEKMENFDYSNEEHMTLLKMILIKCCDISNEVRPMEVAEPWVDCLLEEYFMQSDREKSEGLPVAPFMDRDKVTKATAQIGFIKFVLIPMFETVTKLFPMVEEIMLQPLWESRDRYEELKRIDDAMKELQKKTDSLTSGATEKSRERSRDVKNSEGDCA
Sequence of cGMP-dependent 3',5'-cyclic phosphodiesterase (Homo sapiens) (O00408 whole entry): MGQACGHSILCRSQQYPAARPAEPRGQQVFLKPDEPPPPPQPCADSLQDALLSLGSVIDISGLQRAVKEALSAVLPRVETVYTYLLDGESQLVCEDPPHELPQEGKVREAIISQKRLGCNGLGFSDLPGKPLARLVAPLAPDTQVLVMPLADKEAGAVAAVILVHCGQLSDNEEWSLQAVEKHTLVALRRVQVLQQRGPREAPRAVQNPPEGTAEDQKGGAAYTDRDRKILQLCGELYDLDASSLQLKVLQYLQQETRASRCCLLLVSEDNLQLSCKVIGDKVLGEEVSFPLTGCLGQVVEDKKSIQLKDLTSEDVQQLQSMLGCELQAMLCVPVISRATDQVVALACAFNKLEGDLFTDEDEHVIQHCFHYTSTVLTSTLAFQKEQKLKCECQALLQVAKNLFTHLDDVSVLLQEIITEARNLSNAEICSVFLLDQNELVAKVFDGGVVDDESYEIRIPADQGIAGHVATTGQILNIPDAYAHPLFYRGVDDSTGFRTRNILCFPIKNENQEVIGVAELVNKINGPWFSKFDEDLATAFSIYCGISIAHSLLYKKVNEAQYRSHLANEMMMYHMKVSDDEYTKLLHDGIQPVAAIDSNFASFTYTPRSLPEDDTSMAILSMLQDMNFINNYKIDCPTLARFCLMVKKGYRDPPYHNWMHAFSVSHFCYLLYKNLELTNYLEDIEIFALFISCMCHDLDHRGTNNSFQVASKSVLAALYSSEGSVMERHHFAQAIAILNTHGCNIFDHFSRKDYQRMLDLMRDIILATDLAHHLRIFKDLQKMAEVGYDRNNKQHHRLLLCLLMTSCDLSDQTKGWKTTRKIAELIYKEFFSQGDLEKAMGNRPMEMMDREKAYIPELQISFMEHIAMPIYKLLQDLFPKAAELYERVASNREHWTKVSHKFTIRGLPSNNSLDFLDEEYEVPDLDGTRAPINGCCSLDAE
Sequence of High affinity 3',5'-cyclic-AMP phosphodiesterase 7A (Homo sapiens) (Q13946 whole entry): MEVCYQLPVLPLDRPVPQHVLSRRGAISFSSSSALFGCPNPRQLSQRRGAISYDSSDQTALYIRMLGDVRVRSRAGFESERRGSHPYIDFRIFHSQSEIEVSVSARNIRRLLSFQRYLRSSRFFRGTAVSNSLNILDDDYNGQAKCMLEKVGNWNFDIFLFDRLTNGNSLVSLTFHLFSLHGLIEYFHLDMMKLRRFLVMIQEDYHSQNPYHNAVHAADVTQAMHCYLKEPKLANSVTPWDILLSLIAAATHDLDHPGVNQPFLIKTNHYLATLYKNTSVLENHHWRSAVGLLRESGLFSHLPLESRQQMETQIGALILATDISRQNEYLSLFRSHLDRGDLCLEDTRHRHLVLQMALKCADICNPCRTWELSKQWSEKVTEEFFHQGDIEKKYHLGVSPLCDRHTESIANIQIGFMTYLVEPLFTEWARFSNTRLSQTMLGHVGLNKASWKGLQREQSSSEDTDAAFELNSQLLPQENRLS

Row | SMILES | IC50 [1] | remaining at 1 h [2] | concentration at 0.5 h [3] | Kp at 0.5 h [4] | concentration at 0.5 h [5] | remaining at 1 h [6] | further results
1 | c1ccc2nc(COc3ccc4c(c3)sc3nnc(-c5ccncc5)n34)ccc2c1 | 666 nM | – | – | – | – | – | –
2 | Cc1nc([C@]23COC[C@H]2C3)n2c1sc1cc(OCc3ccc4ccccc4n3)ccc12 | 5.12 nM | 44% | 732 ng/g | 1.86 | 394 ng/mL | 70% | –
3 | Cc1nc([C@@]23COC[C@@H]2C3)n2c1sc1cc(OCc3ccc4ccccc4n3)ccc12 | 6.88 nM | 37% | 430 ng/g | 2.62 | 164 ng/mL | 60% | –
4 | Cc1nc(-c2ccnnc2)n2c1sc1cc(OCc3ccc4ccccc4n3)ccc12 | 13.9 nM | 30% | – | – | – | 3% | –
5 | Cc1nc(C)c(-c2nc(C)c3sc4cc(OCc5ccc6ccccc6n5)ccc4n23)s1 | 0.9 nM | 3% | – | – | – | 20% | –
6 | CC(=O)N1CCC(c2nc(C)c3sc4cc(OCc5ccc6ccccc6n5)ccc4n23)CC1 | 8.96 nM | 76% | 165 ng/g | 0.42 | 396 ng/mL | 48% | –
7 | Cc1nc2sc3cc(OCc4ccc5ccccc5n4)ccc3n2c1-c1ccncc1 | 351 nM | – | – | – | – | – | –
8 | Cc1nc2n(c(=O)c1CCN1CCC(c3noc4cc(F)ccc34)CC1)CCCC2 [RISPERIDONE] | – | – | – | – | – | – | inhibition in vivo at 1 mg/kg (Rattus norvegicus): 72%
9 | Cc1nc(-c2ccncc2)n2c1sc1cc(OCc3ccc4ccccc4n3)ccc12 | 4.85 nM | 5% | – | – | – | 22% | Ratio IC50 (Homo sapiens [7]): > 500; Ratio IC50 (Homo sapiens [8]): > 500; Ratio IC50 (Homo sapiens [9]): > 500; inhibition [10]: 34%; inhibition [11]: 26%; Ratio IC50 (Homo sapiens [12]): > 500; inhibition [13]: 67.2%; Ratio IC50 (Homo sapiens [14]): > 500; inhibition [15]: 21.4%; inhibition [16]: 22.8%; Ratio IC50 (Homo sapiens [17]): > 500; Ratio IC50 (Homo sapiens [18]): > 500; inhibition [19]: 27.1%; Ratio IC50 (Homo sapiens [20]): > 500; inhibition [21]: 0%; inhibition [22]: 42.3%; Ratio IC50 (Homo sapiens [23]): > 500
10 | CC(=O)N1CC(c2nc(C)c3sc4cc(OCc5ccc6ccccc6n5)ccc4n23)C1 | 6.73 nM | 50% | 62 ng/g | 0.45 | 137 ng/mL | 42% | –
11 | Cc1cc(-c2nc(C)c3sc4cc(OCc5ccc6ccccc6n5)ccc4n23)ccn1 | 8.73 nM | 5% | – | – | – | 19% | –
12 | Cc1nc(C2CNC2)n2c1sc1cc(OCc3ccc4ccccc4n3)ccc12 | 157 nM | 100% | – | – | – | 80% | –
13 | Cc1nc(C2CCOC2)n2c1sc1cc(OCc3ccc4ccccc4n3)ccc12 (configuration not stated) | 18.5 nM | 45% | – | – | – | 37% | –
